Source: publication PMC11024795 (GeoHealth, 2024)
Read-outs that look alike come from different tables or passages of the source.

What was measured:
[1] = system: NLRP3, ASC, Caspase-1, IL-1β, IL-18 mRNA in BV2 cells; experiment: RT-qPCR of NLRP3 inflammasome and inflammatory cytokine mRNA; type: cell-based; details: for expression of NLRP3, ASC, Caspase-1, IL-1β, IL-18 mRNA vs 0 μM OPPs / ASC mRNA expression, MCC950 intervention vs OPP alone / IL-1β mRNA expression, MCC950 intervention vs OPP alone / NLRP3 mRNA expression, MCC950 pre-treatment vs OPP alone: BV2 cells; for expression of NLRP3, ASC, Caspase-1, IL-1β, IL-18 mRNA vs 0 μM OPPs: 500 μM OPP, P < 0.0001; for ASC mRNA expression, MCC950 intervention vs OPP alone / IL-1β mRNA expression, MCC950 intervention vs OPP alone / NLRP3 mRNA expression, MCC950 pre-treatment vs OPP alone: OPP 500 μM
[2] = target: hNLRP3 LRR recombinant protein (Homo sapiens, UniProt Q96P20); experiment: Surface plasmon resonance; type: binding; details: for kon: read-out: association constant k a
Sequence of hNLRP3 LRR recombinant protein (Q96P20 742-991 limits assumed): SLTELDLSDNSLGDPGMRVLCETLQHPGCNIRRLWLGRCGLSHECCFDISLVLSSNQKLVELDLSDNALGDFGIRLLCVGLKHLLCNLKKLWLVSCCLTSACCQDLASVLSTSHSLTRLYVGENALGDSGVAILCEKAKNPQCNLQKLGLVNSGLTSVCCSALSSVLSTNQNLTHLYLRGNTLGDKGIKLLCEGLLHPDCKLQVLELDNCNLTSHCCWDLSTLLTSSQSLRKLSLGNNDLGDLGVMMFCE

BV2 cells [3] = experiment: CCK-8 cell viability assay; type: cell-based; details: CCK-8, 125-1,000 μM, 24 hr; significant concentrations differ per compound
BV2 cells [4] = experiment: LDH-based cytotoxicity assay; type: cell-based; details: 125-1,000 μM, 24 hr, significant concentrations differ per compound
BV2 cells [5] = experiment: IC50 of OPPs-induced cytotoxicity in BV2 cells; type: cell-based; details: for IC50: read-out: IC50 values of OPPs in BV2 cells
[6] = system: IL-1β and IL-18 in extracellular medium of BV2 cells; experiment: ELISA of IL-1β and IL-18 in culture supernatants; type: cell-based; details: P < 0.0001; for expression of IL-1β and IL-18 in the extracellular medium vs 0 μM OPPs: ELISA, BV2 cells, OPP 125, 250, 500 μM, 24 hr
[7] = SPR, Biacore 8K, CM5 chip, 25°C

| SMILES | Caspase-1 and IL-18 mRNA expressions, MCC950 intervention vs OPP alone [1] | expression of NLRP3, ASC, Caspase-1, IL-1β, IL-18 mRNA vs 0 μM OPPs [1] | ASC mRNA expression, MCC950 intervention vs OPP alone ([1]; MCC950 10 μM) | IL-1β mRNA expression, MCC950 intervention vs OPP alone ([1]; MCC950 10 μM) | NLRP3 mRNA expression, MCC950 pre-treatment vs OPP alone ([1]; MCC950 10 μM) | affinity constant K D [2, 7] | cell viability of BV2 cells vs 0 μM OPPs (BV2 cells [3]) | cytotoxicity (LDH) in BV2 cells vs 0 μM OPPs (BV2 cells [4]) | IC50 (BV2 cells [5]; BV2 cells, OPPs 24 hr) [µM] | expression of IL-1β and IL-18 in the extracellular medium vs 0 μM OPPs [6] | Kd [2] [µM] | dissociation constant k d [2, 7] [s⁻¹] | kon [2] [M⁻¹ s⁻¹] | IC50 (BV2 cells [5]; Mus musculus, BV-2, 24 h) [µM] | association constant k a [2, 7] [M⁻¹ s⁻¹] | Kd ([2]; read-out: affinity constant K D, SPR, Biacore 8K, CM5 chip, 25°C) [µM] | activation of the NLRP3 inflammasome and associated inflammatory cytokine mRNA expression in OPPs-treated BV2 cells ([1]; MCC950 10 μM, OPPs 500 μM) | cytotoxicity induced by OPPs in BV2 cells (BV2 cells [5]; MCC950 10 μM intervention, from IC50 shift) | IL-1β and IL-18 expression in the extracellular medium of OPPs-treated BV2 cells ([6]; MCC950 10 μM vs OPPs treatment (125, 250, 500 μM)) |
| --- | --- | --- | --- | --- | --- | --- | --- | --- | --- | --- | --- | --- | --- | --- | --- | --- | --- | --- | --- |
| COP(=O)(OC)C(O)C(Cl)(Cl)Cl (stereo not shown) [dipterex] | significantly decreased | significantly increased | decreased | decreased | significant decrease | No obvious binding | significantly decreased | significantly increased | 410 | significantly increased | – | – | – | – | – | – | – | – | – |
| COP(=O)(OC)OC=C(Cl)Cl [dichlorvos] | significantly decreased | significantly increased | decreased | decreased | significant decrease | – | significantly decreased | significantly increased | – | significantly increased | 1460 | 0.00489 | 3.35 | 274 | – | – | – | – | – |
| COP(=O)(OC)OC(Br)C(Cl)(Cl)Br (stereo not shown) [dibrom] | significantly decreased | significantly increased | decreased | decreased | significant decrease | – | – | – | 585 | significantly increased | – | 0.206 | – | – | 76.5 | 2690 | – | – | – |
| COP(=S)(OC)Oc1ccc(SC)c(C)c1 [fenthion] | significantly decreased | significantly increased | decreased | decreased | significant decrease | No obvious binding | significantly decreased | significantly increased | – | significantly increased | – | – | – | 2160 | – | – | – | – | – |
| CNC(=O)CSP(=S)(OC)OC [dimethoate] | significantly decreased | significantly increased | decreased | decreased | significant decrease | – | significantly decreased | significantly increased | – | significantly increased | 89.8 | 0.00529 | 58.9 | – | – | – | – | – | – |
| CCOP(=O)(OCC)Oc1ccc([N+](=O)[O-])cc1 [paraoxon] | significantly decreased | significantly increased | decreased | decreased | significant decrease | – | significantly decreased | significantly increased | 551 | significantly increased | – | 0.00461 | – | – | 14.2 | – | – | – | – |
| CC(C)(O)c1coc(S(=O)(=O)NC(=O)Nc2c3c(cc4c2CCC4)CCC3)c1 [MCC950, reference compound] | – | – | – | – | – | – | – | – | – | – | – | – | – | – | – | – | reduced | markedly decrease | significantly reduced |
